Laboratory results as given in patent EP4667458A1 (Kanaph Therapeutics Inc., priority 2023, dated 2024).
pIC50: −log10 of the molar value.

Target: T1, KRAS^G12C::SOS1 (Homo sapiens, UniProt Q07889)
T1 sequence (Q07889 1-1333): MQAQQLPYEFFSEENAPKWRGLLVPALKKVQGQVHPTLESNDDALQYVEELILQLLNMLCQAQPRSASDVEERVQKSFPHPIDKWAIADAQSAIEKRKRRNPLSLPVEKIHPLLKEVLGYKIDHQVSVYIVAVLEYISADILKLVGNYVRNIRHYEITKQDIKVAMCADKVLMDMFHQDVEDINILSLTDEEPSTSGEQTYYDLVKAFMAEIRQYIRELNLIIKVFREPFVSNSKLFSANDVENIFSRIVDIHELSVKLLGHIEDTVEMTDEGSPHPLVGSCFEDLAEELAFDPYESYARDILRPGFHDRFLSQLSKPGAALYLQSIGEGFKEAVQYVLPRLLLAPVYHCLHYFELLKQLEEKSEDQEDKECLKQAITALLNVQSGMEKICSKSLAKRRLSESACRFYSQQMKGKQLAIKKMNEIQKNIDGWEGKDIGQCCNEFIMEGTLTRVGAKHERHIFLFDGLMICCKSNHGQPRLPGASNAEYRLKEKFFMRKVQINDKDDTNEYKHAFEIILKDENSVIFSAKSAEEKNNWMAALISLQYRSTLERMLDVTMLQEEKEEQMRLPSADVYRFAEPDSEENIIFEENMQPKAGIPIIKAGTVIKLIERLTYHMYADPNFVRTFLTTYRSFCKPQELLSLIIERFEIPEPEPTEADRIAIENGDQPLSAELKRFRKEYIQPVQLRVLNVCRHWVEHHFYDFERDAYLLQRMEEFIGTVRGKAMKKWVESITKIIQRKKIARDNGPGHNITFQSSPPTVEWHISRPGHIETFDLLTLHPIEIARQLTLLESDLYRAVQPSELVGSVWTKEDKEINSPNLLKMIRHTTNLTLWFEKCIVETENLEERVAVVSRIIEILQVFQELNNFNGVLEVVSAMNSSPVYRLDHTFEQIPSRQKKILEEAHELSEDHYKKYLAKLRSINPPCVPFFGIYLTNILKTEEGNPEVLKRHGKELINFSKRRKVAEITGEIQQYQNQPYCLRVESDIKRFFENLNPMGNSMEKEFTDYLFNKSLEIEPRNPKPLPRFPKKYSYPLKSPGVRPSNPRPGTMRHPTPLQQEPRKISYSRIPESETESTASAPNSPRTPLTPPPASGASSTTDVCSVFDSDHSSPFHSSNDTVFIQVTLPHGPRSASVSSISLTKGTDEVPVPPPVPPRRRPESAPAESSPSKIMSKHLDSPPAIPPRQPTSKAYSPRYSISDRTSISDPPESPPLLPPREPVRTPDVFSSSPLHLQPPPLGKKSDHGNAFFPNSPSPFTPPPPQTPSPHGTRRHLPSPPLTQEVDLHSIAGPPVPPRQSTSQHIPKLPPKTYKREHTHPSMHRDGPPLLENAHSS
Experiment: KRAS G12C::SOS1 protein-protein interaction (PPI) inhibition assay (HTRF binding kit)
Conditions: not given

First: CNCc1ccccc1-c1csc([C@@H](C)NC(=O)c2ccc(=O)n(-c3ccccc3F)n2)c1 [Example 267, 1-(2-fluorophenyl)-N-[(1R)-1-[4-[2-(methylaminomethyl)phenyl]-2-thienyl]ethyl]-6-oxo-pyridazine-3-carboxamide]
Second: C[C@@H](NC(=O)c1ccc(=O)n(-c2ccccc2F)n1)c1ccc(-c2ccccc2CO)s1 [Example 299, 1-(2-fluorophenyl)-N-[(1R)-1-[5-[2-(hydroxymethyl)phenyl]-2-thienyl]ethyl]-6-oxo-pyridazine-3-carboxamide]
The pIC50 of the first is higher: > 6.00 for the first, 5.00 to 6.00 for the second.

`CNCc1ccc(F)cc1-c1ccc([C@@H](C)NC(=O)c2ccc(=O)n(-c3cccnc3NC)n2)s1` [Example 302, N-[(1R)-1-[5-[5-fluoro-2-(methylaminomethyl)phenyl]-2-thienyl]ethyl]-1-[2-(methylamino)-3-pyridyl]-6-oxo-pyridazine-3-carboxamide] and `C[C@@H](NC(=O)c1ccc(=O)n(-c2cccnc2F)n1)c1ccc(-c2cc(F)ccc2CC#N)s1` [Example 415, N-[(1R)-1-[5-[2-(cyanomethyl)-5-fluorophenyl]-2-thienyl]ethyl]-1-(2-fluoro-3-pyridyl)-6-oxo-pyridazine-3-carboxamide] cannot be ordered by pIC50: > 6.00 for the first, > 6.00 for the second.

First: CNCc1ccc(Cl)cc1-c1ccc([C@@H](C)NC(=O)c2ccc(=O)n(C3CCN(C(C)=O)CC3)n2)s1 [Example 301, 1-(1-acetyl-4-piperidyl)-N-[(1R)-1-[5-[5-chloro-2-(methylaminomethyl)phenyl]-2-thienyl]ethyl]-6-oxo-pyridazine-3-carboxamide]
Second: C[C@@H](NC(=O)c1ccc(=O)n(-c2ccccc2F)n1)c1cccc(F)c1Cl [Example 261, N-[(1R)-1-(2-chloro-3-fluoro-phenyl)ethyl]-1-(2-fluorophenyl)-6-oxo-pyridazine-3-carboxamide]
The pIC50 of the first is higher: > 6.00 for the first, < 5.00 for the second. The first is the more potent here.

`C[C@@H](NC(=O)c1ccc(=O)n(-c2ccccc2)n1)c1cc(O)cc(F)c1` [Example 219, N-[(1R)-1-(3-fluoro-5-hydroxy-phenyl)ethyl]-6-oxo-1-phenyl-pyridazine-3-carboxamide] and `C[C@@H](NC(=O)c1ccc(=O)n(-c2cccnc2)n1)c1cccc(C(F)(F)CO)c1F` [Example 146, N-[(1R)-1-[3-(1,1-difluoro-2-hydroxy-ethyl)-2-fluoro-phenyl]ethyl]-6-oxo-1-(3-pyridyl)pyridazine-3-carboxamide] cannot be ordered by pIC50: > 6.00 for the first, > 6.00 for the second.

`C[C@@H](NC(=O)c1ccc(=O)n(-c2cccc(-c3cnnn3C)c2)n1)c1cc(N)cc(C(F)(F)F)c1` [Example 369, N-[(1R)-1-[3-amino-5-(trifluoromethyl)phenyl]ethyl]-1-[3-(3-methyltriazol-4-yl)phenyl]-6-oxo-pyridazine-3-carboxamide] and `C[C@@H](NC(=O)c1ccc(=O)n(-c2cccc(-c3ncnn3C)c2)n1)c1cc(N)cc(C(F)(F)F)c1` [Example 328, N-[(1R)-1-[3-amino-5-(trifluoromethyl)phenyl]ethyl]-1-[3-(2-methyl-1,2,4-triazol-3-yl)phenyl]-6-oxo-pyridazine-3-carboxamide] cannot be ordered by pIC50: > 6.00 for the first, > 6.00 for the second.

`C[C@@H](NC(=O)c1ccc(=O)n(-c2cnn(C)c2)c1)c1cccc(C(F)(F)CO)c1F` [Example 164, N-[(1R)-1-[3-(1,1-difluoro-2-hydroxy-ethyl)-2-fluoro-phenyl]ethyl]-1-(1-methylpyrazol-4-yl)-6-oxo-pyridine-3-carboxamide] and `COc1ccc(-n2cc(C(=O)N[C@H](C)c3cccc(C(F)(F)CO)c3F)ccc2=O)cc1` [Example 203, N-[(1R)-1-[3-(1,1-difluoro-2-hydroxy-ethyl)-2-fluoro-phenyl]ethyl]-1-(4-methoxyphenyl)-6-oxo-pyridine-3-carboxamide] cannot be ordered by pIC50: > 6.00 for the first, > 6.00 for the second.

First: C[C@@H](NC(=O)c1ccc(=O)n(CCN(C)C)n1)c1cc(N)cc(C(F)(F)F)c1 [Example 229, N-[(1R)-1-[3-amino-5-(trifluoromethyl)phenyl]ethyl]-1-[2-(dimethylamino)ethyl]-6-oxo-pyridazine-3-carboxamide]
Second: C[C@@H](NC(=O)c1ccc(=O)n(-c2cnn(C)c2Cl)n1)c1cc(N)cc(C(F)(F)F)c1 [Example 209, N-[(1R)-1-[3-amino-5-(trifluoromethyl)phenyl]ethyl]-1-(5-chloro-1-methyl-pyrazol-4-yl)-6-oxo-pyridazine-3-carboxamide]
The pIC50 of the first is lower: 5.00 to 6.00 for the first, > 6.00 for the second.

`C[C@@H](NC(=O)c1ccc(=O)n(-c2cccc(-c3ccnn3C)c2)n1)c1cccc(C(F)(F)CO)c1F` [Example 332, N-[(1R)-1-[3-(1,1-difluoro-2-hydroxy-ethyl)-2-fluoro-phenyl]ethyl]-1-[3-(2-methylpyrazol-3-yl)phenyl]-6-oxo-pyridazine-3-carboxamide] and `C[C@@H](NC(=O)c1ccc(=O)n(-c2cc(-c3cnnn3C)ccc2F)n1)c1cccc(C(F)(F)CO)c1F` [Example 372, N-[(1R)-1-[3-(1,1-difluoro-2-hydroxy-ethyl)-2-fluoro-phenyl]ethyl]-1-[2-fluoro-5-(3-methyltriazol-4-yl)phenyl]-6-oxo-pyridazine-3-carboxamide] cannot be ordered by pIC50: > 6.00 for the first, > 6.00 for the second.

`C[C@@H](NC(=O)c1ccc(=O)n(-c2cccc(C(=O)N(C)C)c2F)n1)c1cccc(C(F)(F)CO)c1F` [Example 353, N-[(1R)-1-[3-(1,1-difluoro-2-hydroxy-ethyl)-2-fluoro-phenyl]ethyl]-1-[3-(dimethylcarbamoyl)-2-fluoro-phenyl]-6-oxo-pyridazine-3-carboxamide] and `COc1ccc(F)c(-n2cc(C(=O)N[C@H](C)c3cccc(C(F)(F)CO)c3F)ccc2=O)c1` [Example 177, N-[(1R)-1-[3-(1,1-difluoro-2-hydroxy-ethyl)-2-fluoro-phenyl]ethyl]-1-(2-fluoro-5-methoxyphenyl)-6-oxo-pyridine-3-carboxamide] cannot be ordered by pIC50: > 6.00 for the first, > 6.00 for the second.

`C[C@@H](NC(=O)c1ccc(=O)n(-c2ccc(F)cc2F)n1)c1cc(N)cc(C(F)(F)F)c1` [Example 362, N-[(1R)-1-[3-amino-5-(trifluoromethyl)phenyl]ethyl]-1-(2,4-difluorophenyl)-6-oxo-pyridazine-3-carboxamide] and `Cc1nc(-n2nc(C(=O)N[C@H](C)c3cc(N)cc(C(F)(F)F)c3)ccc2=O)cs1` [Example 386, N-[(1R)-1-[3-amino-5-(trifluoromethyl)phenyl]ethyl]-1-(2-methylthiazol-4-yl)-6-oxo-pyridazine-3-carboxamide] cannot be ordered by pIC50: > 6.00 for the first, > 6.00 for the second.

`C[C@@H](NC(=O)c1ccc(=O)n(-c2cccc(-c3nncn3C)c2)c1)c1cc(N)cc(C(F)(F)F)c1` [Example 348, N-[(1R)-1-[3-amino-5-(trifluoromethyl)phenyl]ethyl]-1-[3-(4-methyl-1,2,4-triazol-3-yl)phenyl]-6-oxo-pyridine-3-carboxamide] and `C[C@@H](NC(=O)c1ccc(=O)n(-c2cccc(-c3ccnn3C)c2)c1)c1cc(N)cc(C(F)(F)F)c1` [Example 321, N-[(1R)-1-[3-amino-5-(trifluoromethyl)phenyl]ethyl]-1-[3-(2-methylpyrazol-3-yl)phenyl]-6-oxo-pyridine-3-carboxamide] cannot be ordered by pIC50: > 6.00 for the first, > 6.00 for the second.

Same assay, conditions: read-out: KRAS ^G12C::SOS1 PPI assay (IC50 range, Grade); maximum concentration 3 µM, 8 concentrations, three replicates

For “N-[(1R)-1-[3-amino-5-(trifluoromethyl)phenyl]ethyl]-6-oxo-1-(3-phenylphenyl)pyridazine-3-carboxamide [Example 212]”, the pIC50 was 5.00 to 6.00.
